Experimental data published in publication PMC2174028 (The Journal of Cell Biology, 2002).

B1: sPSGL-1: recombinant soluble form of human PSGL-1 comprising the entire extracellular domain, expressed in CHO cells (protein, UniProt Q14242 18-320, looked up)
extracellular domain: LQLWDTWADEAEKALGPLLARDRRQATEYEYLDYDFLPETEPPEMLRNSTDTTPLTGPGTPESTTVEPAARRSTGLDAGGAVTELTTELANMGNLSTDSAAMEIQTTQPAATEAQTTQPVPTEAQTTPLAATEAQTTRLTATEAQTTPLAATEAQTTPPAATEAQTTQPTGLEAQTTAPAAMEAQTTAPAAMEAQTTPPAAMEAQTTQTTAMEAQTTAPEATEAQTTQPTATEAQTTPLAAMEALSTEPSATEALSMEPTTKRGLFIPFSVSSVTHKGIPMAASNLSVNYPVGAPDHISVKQC
modifications: extracellular domain

Assays:
P-selectin [1] = settings: ref Leppänen et al., 2000; cited from earlier work
P-selectin [2] = format: binding; settings: intermediate or high densities of P-selectin, as a function of wall shear stress

Row | Molecule | Affinity for P-selectin (in words) (P-selectin [1]) | Initial tethering of ligand-coupled microspheres to P-selectin (in words) (P-selectin [2])
1 | CC(=O)N[C@H]1[C@H]([C@H](O)[C@H](O)CO)O[C@@](O[C@H]2[C@@H](O)[C@@H](CO)O[C@@H](O[C@@H]([C@H](O[C@@H]3O[C@@H](C)[C@@H](O)[C@@H](O)[C@@H]3O)[C@H](C=O)NC(C)=O)[C@H](O)CO)[C@@H]2O)(C(=O)O)C[C@@H]1O [sLe^x, sialyl Lewis x] | very low affinity | –
2 | B1 | – | tethered at identical rates
